Experimental data published in patent US9593305B2, “Differentiation of pluripotent stem cells” (Janssen Biotech, Inc., priority 2008, dated 2017).

Test system: H1 human embryonic stem cells
Experiment: Compound 34 with growth factor combinations including GDF-8, no activin A (Example 7, Table 6)
Type: cell-based
Method: Clusters of H1 human embryonic stem cells were grown on reduced growth factor […]™ (Invitrogen; Cat #356231)-coated tissue culture plastic. Cells were passaged using collagenase (Invitrogen; Cat #17104-019) treatment and gentle scraping, washed to remove residual enzyme, and plated with even dispersal at a ratio of 1:1 (surface area) on reduced growth factor […]™-coated 96-well black plates (Packard ViewPlates; PerkinElmer; Cat #6005182) using volumes of 100 μl/well. Cells were allowed to attach as clusters and then recover log phase growth over a 1 to 3 day period, feeding daily with MEF conditioned medium supplemented with 8 ng/ml bFGF (R&D Systems; Cat #233-FB). Plates were maintained at 37° C., 5% CO2 in a humidified box throughout the duration of assay.
Stocks of growth factors purchased from R&D Systems were EGF (Cat #236-EG), FGF4 (Cat #235-F4), PDGF-A (Cat #221-AA), PDGF-D (Cat #1159-SB), PDGF-A/B (Cat #222-AB), VEGF (Cat #293-VE), and GDF-8 (Cat #788-G8). Muscimol was purchased from Tocris (Cat #0289). All growth factors were solubilized in PBS with 0.1% BSA (Sigma; Cat #A7888) and stored frozen at −80° C. Muscimol was solubilized in 100% DMSO (Sigma; Cat #D2650) and stored frozen at −80° C. Cyclic aniline-pyridinotriazine compounds were available as 5 mM stocks in 96-well plate format, solubilized in 100% DMSO and stored at −80° C. Compound 34 was further diluted to an intermediate concentration of 0.2 mM in 50 mM HEPES (Invitrogen; Cat #15630-080), 20% DMSO and stored at 4° C. All growth factors and inhibitors were prepared in a deep well, 96-well polypropylene plate, diluted to 5× intermediate stocks in DMEM:F12 base medium at the beginning of assay and stored at 4° C.
A secondary screening assay was conducted, testing in triplicate and feeding on alternate days over the four-day assay timeframe. Assays were initiated by aspirating culture medium from each well followed by three washes in PBS to remove residual growth factors and serum. […] All remaining growth factors were tested at a final assay concentration of 50 ng/ml (EGF, FGF4, PDGF-A, PDGF-A/B, VEGF) with the exception of GDF-8 tested at 25 ng/ml. Final assay concentration of muscimol was 20 μM. […]
On day 3, wells were aspirated and fed with 80 μl DMEM:F12 base medium supplemented with 2.5% FCS (HyClone) and 3.125 μM Compound 34 plus 20 μl 5× stock of growth factors or small molecules per well to yield a final concentration of 2% FCS and 2.5 μM Compound 34 (omitting Wnt3a) and as denoted on day one for all remaining growth factors or small molecules. Positive control wells (100 μl/well) contained the same base medium supplemented with 2% FCS and 100 ng/ml activin A, omitting Wnt3a. Negative control wells (100 μl/well) contained the same base medium with 2% FCS, omitting both activin A and Wnt3a.
At the conclusion of four-days of culture, assay plates were washed twice with PBS, fixed with 4% paraformaldehyde (Alexis Biochemical; Cat ALX-350-011) at room temperature for 20 minutes, then washed three times with PBS and permeabilized with 0.5% Triton X-100 (Sigma; Cat #T8760-2) for 20 minutes at room temperature. Cells were washed again three times with PBS and blocked with 4% chicken serum (Invitrogen; Cat #16110082) in PBS for 30 minutes at room temperature. Primary antibody (goat anti-human SOX17; R&D Systems; cat #AF1924) was diluted 1:100 in 4% chicken serum and added to each well for one hour at room temperature. Alexa Fluor 488 conjugated secondary antibody (chicken anti-goat IgG; Molecular Probes; Cat #AZ1467) was diluted 1:200 in PBS and added to each sample well after washing three times with PBS. To counterstain nuclei, 4 μg/ml Hoechst 33342 (Invitrogen; Cat #H3570) was added for ten minutes at room temperature. Plates were washed once with PBS and left in 100 μl/well PBS for imaging. […]

[1] = no AA (with Wnt3a), EGF + FGF4 + PDGF-A + VEGF + PDGF-D + Muscimol + GDF8
[2] = no AA (with Wnt3a), GDF8 + PDGF-D
[3] = no AA (with Wnt3a), GDF8 + PDGF-D + VEGF
[4] = no AA (with Wnt3a), GDF8 + PDGF-D + VEGF + Muscimol
[5] = no AA (with Wnt3a), GDF8 + VEGF + Muscimol
[6] = no AA (with Wnt3a), PDGF-D + Muscimol
[7] = no AA (with Wnt3a), PDGF-D + Muscimol + VEGF
[8] = no AA (with Wnt3a), PDGF-D + VEGF
[9] = no AA (with Wnt3a), VEGF + Muscimol
[10] = no AA, no Wnt3a, EGF + FGF4 + PDGF-A + VEGF + PDGF-D + Muscimol + GDF8

“GDF-8: growth factor GDF-8, also known as myostatin, member of the TGF-β family” was tested, and the SOX17 expression (GDF-8 25 ng/ml in any combination with Compound 34) was “substantial increase in SOX17 expression”.

`O=C1CCN2CCN(CC2)Cc2cc(Cl)cc(c2)Nc2ncnc(n2)-c2cncc(c2)CCCN1` [Compound 34, 5-Chloro-1,8,10,12,16,22,26,32-octaazapentacyclo[24.2.2.1˜3.7˜0.1˜9,13˜0.1˜14.18˜]tritriaconta-3(33), 4,6,9(32), 10,12,14(31), 15,17-nonaen-23-one] was tested, and the “SOX17 expression (% of control)” value (2.5 μM Compound 34 with GDF-8 (25 ng/ml) and Wnt3a, no activin A) was 88 % of control, the “Cell Number, % of positive control” value (no AA (with Wnt3a), EGF) was 85.53% and the “Cell Number, Average Total Cell Number” value (no AA (with Wnt3a), EGF) was 6145. The “Sox17 Expression, % of positive control” value (no AA (with Wnt3a), EGF) was 19.18%, the “Sox17 Expression, Average Total Intensity” value (no AA (with Wnt3a), EGF) was 1.5E+07 and the “Cell Number, % of positive control” value [1] was 83.90%. The “Cell Number, Average Total Cell Number” value [1] was 6028, the “Sox17 Expression, % of positive control” value [1] was 87.44% and the “Sox17 Expression, Average Total Intensity” value [1] was 7.0E+07. For the same compound, the “Cell Number, % of positive control” value (no AA (with Wnt3a), FGF4) was 74.09%, the “Cell Number, Average Total Cell Number” value (no AA (with Wnt3a), FGF4) was 5323 and the “Sox17 Expression, % of positive control” value (no AA (with Wnt3a), FGF4) was 33.75%. The “Sox17 Expression, Average Total Intensity” value (no AA (with Wnt3a), FGF4) was 2.7E+07, the “Cell Number, % of positive control” value (no AA (with Wnt3a), GDF8) was 88.44% and the “Cell Number, Average Total Cell Number” value (no AA (with Wnt3a), GDF8) was 6354. For the same compound, the “Sox17 Expression, % of positive control” value (no AA (with Wnt3a), GDF8) was 88.59%, the “Sox17 Expression, Average Total Intensity” value (no AA (with Wnt3a), GDF8) was 7.1E+07 and the “Cell Number, % of positive control” value [2] was 95.88%. The “Cell Number, Average Total Cell Number” value [2] was 6889, the “Sox17 Expression, % of positive control” value [2] was 72.59% and the “Sox17 Expression, Average Total Intensity” value [2] was 5.8E+07. For the same compound, the “Cell Number, % of positive control” value [3] was 77.74%, the “Cell Number, Average Total Cell Number” value [3] was 5585 and the “Sox17 Expression, % of positive control” value [3] was 81.75%. For the same compound, the “Sox17 Expression, Average Total Intensity” value [3] was 6.6E+07, the “Cell Number, % of positive control” value [4] was 131.60% and the “Cell Number, Average Total Cell Number” value [4] was 9455. The “Sox17 Expression, % of positive control” value [4] was 119.24%, the “Sox17 Expression, Average Total Intensity” value [4] was 9.6E+07 and the “Cell Number, % of positive control” value [5] was 84.67%. For the same compound, the “Cell Number, Average Total Cell Number” value [5] was 6083, the “Sox17 Expression, % of positive control” value [5] was 69.62% and the “Sox17 Expression, Average Total Intensity” value [5] was 5.6E+07. For the same compound, the “Cell Number, % of positive control” value (no AA (with Wnt3a), Muscimol) was 101.41%, the “Cell Number, Average Total Cell Number” value (no AA (with Wnt3a), Muscimol) was 7286 and the “Sox17 Expression, % of positive control” value (no AA (with Wnt3a), Muscimol) was 38.38%. The “Sox17 Expression, Average Total Intensity” value (no AA (with Wnt3a), Muscimol) was 3.1E+07, the “Cell Number, % of positive control” value (no AA (with Wnt3a), PDGF-A) was 58.11% and the “Cell Number, Average Total Cell Number” value (no AA (with Wnt3a), PDGF-A) was 4175. The “Sox17 Expression, % of positive control” value (no AA (with Wnt3a), PDGF-A) was 13.43%, the “Sox17 Expression, Average Total Intensity” value (no AA (with Wnt3a), PDGF-A) was 1.1E+07 and the “Cell Number, % of positive control” value (no AA (with Wnt3a), PDGF-D) was 69.84%. For the same compound, the “Cell Number, Average Total Cell Number” value (no AA (with Wnt3a), PDGF-D) was 5017, the “Sox17 Expression, % of positive control” value (no AA (with Wnt3a), PDGF-D) was 18.76% and the “Sox17 Expression, Average Total Intensity” value (no AA (with Wnt3a), PDGF-D) was 1.5E+07. The “Cell Number, % of positive control” value [6] was 48.57%, the “Cell Number, Average Total Cell Number” value [6] was 3490 and the “Sox17 Expression, % of positive control” value [6] was 8.02%. For the same compound, the “Sox17 Expression, Average Total Intensity” value [6] was 6.5E+06, the “Cell Number, % of positive control” value [7] was 29.68% and the “Cell Number, Average Total Cell Number” value [7] was 2133. For the same compound, the “Sox17 Expression, % of positive control” value [7] was 3.32%, the “Sox17 Expression, Average Total Intensity” value [7] was 2.7E+06 and the “Cell Number, % of positive control” value [8] was 70.01%. The “Cell Number, Average Total Cell Number” value [8] was 5030, the “Sox17 Expression, % of positive control” value [8] was 14.58% and the “Sox17 Expression, Average Total Intensity” value [8] was 1.2E+07. For the same compound, the “Cell Number, % of positive control” value (no AA (with Wnt3a), VEGF) was 65.60%, the “Cell Number, Average Total Cell Number” value (no AA (with Wnt3a), VEGF) was 4713 and the “Sox17 Expression, % of positive control” value (no AA (with Wnt3a), VEGF) was 12.49%. For the same compound, the “Sox17 Expression, Average Total Intensity” value (no AA (with Wnt3a), VEGF) was 1.0E+07, the “Cell Number, % of positive control” value [9] was 10.81% and the “Cell Number, Average Total Cell Number” value [9] was 776. The “Sox17 Expression, % of positive control” value [9] was 1.56%, the “Sox17 Expression, Average Total Intensity” value [9] was 1.3E+06 and the “Cell Number, % of positive control” value (no AA (with Wnt3a), none) was 64.18%. The “Cell Number, Average Total Cell Number” value (no AA (with Wnt3a), none) was 4611, the “Sox17 Expression, % of positive control” value (no AA (with Wnt3a), none) was 17.21% and the “Sox17 Expression, Average Total Intensity” value (no AA (with Wnt3a), none) was 1.4E+07. The “Cell Number, % of positive control” value [10] was 66.21%, the “Cell Number, Average Total Cell Number” value [10] was 4757 and the “Sox17 Expression, % of positive control” value [10] was 48.77%. For the same compound, the “Sox17 Expression, Average Total Intensity” value [10] was 3.9E+07.
